Assay [1] has as its system GIP receptor. Particulars: cited from earlier work.
Assay [2] concerns GIP receptor. Particulars: cited from earlier work. The source holds these as a separate data set.
A further assay has as its target T1, GIP receptors (Homo sapiens, UniProt P48546).
T1 construct: from tissue; host or cells: fresh frozen human tumor tissue (neuroendocrine tumors) and non-neoplastic human tissue (pancreatic islets) from surgical resection
T1 sequence (P48546 22-466): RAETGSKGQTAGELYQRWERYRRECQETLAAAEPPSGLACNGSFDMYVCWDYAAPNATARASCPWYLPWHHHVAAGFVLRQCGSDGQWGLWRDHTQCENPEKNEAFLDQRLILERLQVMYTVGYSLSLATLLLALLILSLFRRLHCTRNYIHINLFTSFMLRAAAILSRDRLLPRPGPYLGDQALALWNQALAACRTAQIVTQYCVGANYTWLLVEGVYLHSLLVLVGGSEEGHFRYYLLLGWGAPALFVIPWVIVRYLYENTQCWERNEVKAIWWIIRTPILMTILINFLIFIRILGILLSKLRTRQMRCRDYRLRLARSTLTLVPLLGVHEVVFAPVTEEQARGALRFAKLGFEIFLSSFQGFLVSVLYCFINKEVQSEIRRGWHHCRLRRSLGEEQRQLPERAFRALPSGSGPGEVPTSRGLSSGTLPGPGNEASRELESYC
In words: In vitro GIP receptor autoradiography: displacement of 125I-GIP(1-30) in tissue sections. The class given is binding. Particulars: increasing concentrations of cold peptide; tumor and normal pancreatic islets, all examples. Here is the method:
It was radiolabeled by the lactoperoxidase method and purified by HPLC (Anawa, Wangen, Switzerland). The two lodo-Tyrosine analogues (peak 1 iodinated at Tyr^1 and peak 2 iodinated at Tyr^10) were analyzed by LC-ESI-MS-MS (R. Brunisholz, Functional Genomics Center Zürich, ETHZ). […] After incubation, the slides were washed five times in ice-cold Tris-HCl buffer (170 mM; pH 8.2) containing 0.25% BSA and twice in ice-cold Tris-HCl buffer without BSA. The slides were dried for 15 minutes under a stream of cold air and then exposed to Kodak films Biomax MR® for seven days at 4° C. The signals on the films were analyzed in correlation with morphology using corresponding H&E stained tissue slides. The receptor density was quantitatively assessed using tissue standards for iodinated compounds (Amersham, Aylesbury, UK) and a computer-assisted image processing system (Analysis Imaging System, Interfocus, Mering, Germany).

For assay [3] the following is noted: cited from earlier work; for biological activity: truncated forms of GIP.
For another assay, the system named is islet cells. Kind of assay: β-Cell imaging with GIP radioligands, ex vivo pancreas autoradiography. The assay is classed as in vivo, Sprague-Dawley rats. The conditions noted are these: i.v., with or without unlabeled GIP(1-30); autoradiography correlated with insulin immunostaining. The text has this: Animals were euthanized and the pancreas was extracted, immediately frozen, and sectioned. The sections were apposed to radiosensitive films, scanned, and immunostained for insulin.

The test system of assay [4] is TT cells (human medullary thyroid cancer cells). The conditions noted are these: 1 nM to 1000 nM GIP for 3 hours, supernatant.
Description: Calcitonin levels (C, pg/ml) were determined from the cell supernatant using the Calcitonin-kit from Siemens.
TT cells (derived from a human medullary thyroid carcinoma; ATCC Number: CRL-1803) were plated in 24-well plates (100′000 cells per well) and cultured for 48 hours in growth medium (nutrient mixture F12 Ham Kaighn's modification containing L-glutamine and supplemented with 10% fetal bovine serum) at 37° C. and 5% CO2. Subsequently the growth medium was replaced by the serum-free challenge medium (RPMI 1640, 10 mM HEPES and GlutaMax-I) and the cells were incubated for further 48 hours at 37° C. and 5% CO2. […] As negative control cells were treated with challenge medium containing vehicle alone. The cells were incubated for 3 hours at 37° C. and 5% CO2.

As for “GIP19-30: C-terminal GIP fragment capable of receptor binding (QQDFVNWLLAQK; Gastric inhibitory polypeptide; UniProt P09681 70-81, looked up, fragment)”, the “activation of adenylyl cyclase” value in the assay on GIP receptor [1] was “activation of adenylyl cyclase”. The receptor binding entry with GIP receptor [2] is on record as “capable of receptor binding”. Turning to “GLP-2: GLP-2 receptor selective agonist (Bachem)”, the “displacement of 125I-GIP(1-30) (affinity)” value with GIP receptors is reported as “not displaced”. As for “GIP6-30: GIP fragment binding with high affinity, antagonist (FISDYSIAMDKIHQQDFVNWLLAQK; Gastric inhibitory polypeptide; UniProt P09681 57-81, looked up, fragment)”, the “functional mode at the GIP receptor” value in the assay with GIP receptor [1] is given as “act as antagonists”. The receptor binding entry in the assay on GIP receptor [2] is “high affinity”. Consider “GIP1-39: truncated form of GIP (YAEGTFISDYSIAMDKIHQQDFVNWLLAQKGKKNDWKHN; Gastric inhibitory polypeptide; UniProt P09681 52-90, looked up, fragment)”, for which, in assay [3], the biological activity entry is “retain a high degree of biological activity”. Consider “glucagon(1-29): glucagon receptor selective agonist (Bachem)”, for which, in the assay with GIP receptors, the “displacement of 125I-GIP(1-30) (affinity)” value is given as “not displaced”. With “GIP3-42: peptide resulting from cleavage of GIP by DPP-IV; antagonist (EGTFISDYSIAMDKIHQQDFVNWLLAQKGKKNDWKHNITQ; Gastric inhibitory polypeptide; UniProt P09681 54-93, looked up, fragment)”, the “functional mode at the GIP receptor” value in the assay with GIP receptor [1] was “antagonist of GIP1-42 induced cAMP production”. Besides, the insulinotropic activity entry in assay [3] (product of DPP-IV cleavage) is on record as “lacking insulinotropic activity”. With “^111In-DOTA-GIP(1-30): GIP(1-30) carrying 111In complexed through DOTA chelator; GIP radioligand for β-cell imaging”, the “localisation of radioligand binding in pancreas” value in the assay with islet cells is on record as “restricted to islet cells”.

For “GIP1-14: GIP fragment capable of receptor binding (YAEGTFISDYSIAM; Gastric inhibitory polypeptide; UniProt P09681 52-65, looked up, fragment)”, in the assay with GIP receptor [1], the “activation of adenylyl cyclase” value is “activation of adenylyl cyclase”. Moreover, in the assay with GIP receptor [2], the receptor binding result is on record as “capable of receptor binding”. “glucose-dependent insulinotropic polypeptide [GIP]”: the calcitonin release entry in assay [4] was “stimulates calcitonin release”. For the substance “GIP(1-30): truncated form of GIP; cold human GIP(1-30), parent peptide of the radioligand (YAEGTFISDYSIAMDKIHQQDFVNWLLAQK; Gastric inhibitory polypeptide; UniProt P09681 52-81, looked up, fragment)”, the biological activity result in assay [3] was “retain a high degree of biological activity”.

Consider “GIP7-30-NH2: GIP fragment amide binding with high affinity, antagonist”, for which the “functional mode at the GIP receptor” value in the assay with GIP receptor [1] is reported as “act as antagonists”. For the same substance, the receptor binding entry with GIP receptor [2] is listed as “high affinity”.

The values are drawn from US20140377171A1, “Imaging and Treatment of Neuroendocrine Tumors with Glucose - Dependent Insulinotropic Polypeptide or Analogues or Antagonists Thereof” (priority 2011, published 2014).
